According to patent US20120071475A1, “UREA DERIVATIVES HAVING PI3K-INHIBITING ACTIVITY” (SHIONOGI & CO., LTD., priority 2009, published 2012):
Where two headings read alike, the source gives them in different places.

Legend:
CYP3A4 = biological target: T1, CYP3A4 (Homo sapiens, UniProt P08684); assay: CYP3A4 fluorescence MBI test; type: in vitro ADME; details: difference in IC50 with 0 or 30 minutes pre-reaction; CYP3A4 expressed in E. coli, substrate 7-BFC
T1 construct: host or cells: E. coli
How it was run: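 E. coli-expressed CYP3A4 debenzylating 5.6 μmol/L 7-BFC to fluorescent 7-HFC (Ex 420/Em 535 nm) in K-Pi pH 7.4 at 25° C, 15 min reaction. NADPH pre-incubation of 0 or 30 min, with 10-fold dilution before reaction. IC50 from 0.625–20 μmol/L (6 points); (+) for an IC50 shift ≥5 μmol/L, (−) for ≤3 μmol/L.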

[1] = tested on: CYP1A2, CYP2C9, CYP2C19, CYP2D6 and CYP3A4 (one value for the five species); assay: CYP inhibition test, five CYP species together (5CYPs_IC50; pooled human liver microsome); type: in vitro ADME
Text: O-de-ethylation of 7-ethoxyresorufin (CYP1A2), methyl-hydroxylation of tolbutamide (CYP2C9), 4′-hydroxylation of mephenyloin (CYP2C19), O-demethylation of dextromethorphan (CYP2D6), and hydroxylation of terfenadine (CYP3A4), which are typical substrate for metabolic reactions of human main CYP5 molecular species (CYP1A2, 2C9, 2C19, 2D6, and 3A4), were adopted as indexes.
The reaction conditions are as follows: substrate: 0.5 μmol/L of ethoxyresorufin (CYP1A2), 100 μmol/L of tolbutamide (CYP2C9), 50 μmol/L of S-mephenyloin (CYP2C19), 5 μmol/L of dextromethorphan (CYP2D6), and 1 μmol/L of terfenadine (CYP3A4); reaction time; 15 minutes; reaction temperature: 37° C.; enzyme: pooled human liver microsome 0.2 mg protein/mL; test drug concentration: 1, 5, 10, and 20 μmol/L (4 points).
In a 96-well plate, as a reaction solution, five kinds of substrates, a human liver microsome, and a test drug were added to 50 mmol/L Hepes buffer solution in the aforementioned ratio. A coenzyme NADPH was added to start a metabolic reaction, which is an index. After reacting at 37° C. for 15 minutes, a solution of methanol/acetonitrile (1/1 (v/v)) was added to quench the reaction. After centrifugation at 3000 rpm for 15 minutes, resorufin (CYP1A2 metabolite) in the supernatant was quantitated with a fluorescence multilabel counter, and hydroxylated tolbutamide (CYP2C9 metabolite), 4′-hydroxylated mephenyloin (CYP2C19 metabolite), […], terfenadine in alcohol form (CYP3A4 metabolite) were quantitated with LC/MS/MS.
The case wherein only DMSO (a solvent which dissolved a drug) was added to a reaction system was defined as a control (100%). When a test drug solution was added, the remaining activity (%) at each concentration was calculated, and then IC50 was calculated with a concentration and an inhibition ratio by an inverse estimation using a logistic model.

PI3Kγ = PI3Kγ (Homo sapiens, UniProt P48736); assay: PI3Kγ inhibitory activity (PI3-kinase HTRF assay, inhibition ratio); type: biochemical; details: 0.5 h, compound at 10 μmol/L; read-out: PI3Kg Inhibition Ratio % (10 μM)
How it was run: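 Compound at 10 μmol/L preincubated 10 min with PI3Kγ and PIP2 substrate, then reacted with ATP for 30 minutes at room temperature; the compound, substrate and ATP figures as printed (40 μmol/L each) are solution concentrations. HTRF 665/620 nm ratio read after 18 hours. Inhibition ratio calculated against no-compound (100%) and no-enzyme (0%) controls.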

[2] = Metabolic stability test (pooled human liver microsome); type: in vitro ADME; details: percentage of test compound remained after 30 minutes, pooled human liver microsome 0.5 mg protein/mL, 1 mmol/L NADPH, 37° C., compound 0.5 μM
How it was run: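 Pooled human liver microsomes (0.5 mg protein/mL) incubated with compound and 1 mmol/L NADPH at 37° C. in pH 7.4 Tris buffer for 0 or 30 min. Parent quantified by LC/MS/MS after methanol/acetonitrile quench; value is % remaining at 30 min versus 0 min.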

hERG channel (IKr) = biological target: T2, hERG channel (IKr) (Homo sapiens, UniProt Q12809); assay: hERG test (whole-cell patch-clamp, IKr in HEK293 cells); type: cell-based; details: human, HEK293 cells expressing hERG channel, pH 7.4, inhibition of maximum tail current (IKr), compound 1 μM
T2 construct: expressed in transfected cells; host or cells: HEK293
How it was run: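 hERG-expressing HEK293 cells, automated whole-cell patch clamp: hold −80 mV, +50 mV for 2 s, then −50 mV for 2 s to record IKr tail current. Compound in extracellular solution (pH 7.4) for 10 min at room temperature; inhibition of maximum tail current calculated versus pre-application and compared with 0.1% DMSO vehicle.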

AKT phosphorylation = AKT phosphorylation inhibitory activity in MCP-1 stimulated THP-1 cells (sandwich ELISA); type: cell-based, Human; details: Homo sapiens, compound at 1 μmol/L, MCP-1 stimulation, read-out: AKT phosphorylation inhibition ratio
Experimental: (1) The AKT phosphorylation inhibitory activity of a compound was evaluated according to the following procedure. (2) Human monocyte-like cell line THP-1 was washed with RPMI-1640 media, incubated in the presence of 5% CO2 at 37° C. for 3 hours, washed with Hank's balanced salt solution (HBSS), adjusted to a cell concentration of 6.7×10^6/mL, and then used in an experiment. (3) 30 μL of the cell suspension and 60 μL of each compound solution containing 0.2% DMSO/HBSS were mixed and then preincubated at 37° C. for 5 minutes. 30 μL of HBSS containing 1.2 μg/mL of MCP-1 was added thereto and then incubated for 60 seconds at 37° C. (4) 30 μL of a cell lysate (the final concentrations: 20 mmol/L Tris-HCl (pH 7.5), 150 mmol/L NaCl, 1 mmol/L EDTA, 1 mmol/L EDTA, 1% Triton X-100, 2.5 mmol/L sodium pyrophosphate, 1 mmol/L β-glycerophosphate, 1 mmol/L Na3VO4, 1 μg/ml leupeptin, 50 nmol/L APMSF) was added thereto to lyse cells. (5) The amount of AKT phosphorylation in the cell solution was measured by sandwich ELISA method using anti-Phospho-Akt (Ser473) antibody and anti-AKT1 antibody. (6) Anti-Phospho-Akt (Ser473) antibodies or anti-AKT1 antibodies were immobilized onto the solid phase of a micro well plate. The prepared cell lysate was added to the micro well plate, incubated, and then washed with ELISA wash solution. (7) An anti-AKT1 antibody or anti-Phospho-Akt (Ser473) antibody, which forms a counterpart to an antibody immobilized on the solid phase, was added thereto, incubated, washed similarly, and then reacted with an HRP-labeled anti-mouse IgG antibody. (8) After incubating for 30 minutes and then washing similarly, 100 μL of TMB (3,3′,5,5″-tetramethylbenzidine) was added thereto, followed by reacting for 30 minutes. (9) 100 μL of stop solution was added to quench the color reaction, and then the absorbance at 450 nm was measured. (10) The amount of AKT phosphorylation in a sample in the absence of a compound was defined as 100% activity, and the amount of AKT phosphorylation in a sample in the absence of MCP-1 was defined as 0% activity to calculate an inhibition ratio of each compound. The measurement was performed for a 1 μmol/L solution of each compound.

PI3Kγ, sequence (P48736 whole entry, species assumed): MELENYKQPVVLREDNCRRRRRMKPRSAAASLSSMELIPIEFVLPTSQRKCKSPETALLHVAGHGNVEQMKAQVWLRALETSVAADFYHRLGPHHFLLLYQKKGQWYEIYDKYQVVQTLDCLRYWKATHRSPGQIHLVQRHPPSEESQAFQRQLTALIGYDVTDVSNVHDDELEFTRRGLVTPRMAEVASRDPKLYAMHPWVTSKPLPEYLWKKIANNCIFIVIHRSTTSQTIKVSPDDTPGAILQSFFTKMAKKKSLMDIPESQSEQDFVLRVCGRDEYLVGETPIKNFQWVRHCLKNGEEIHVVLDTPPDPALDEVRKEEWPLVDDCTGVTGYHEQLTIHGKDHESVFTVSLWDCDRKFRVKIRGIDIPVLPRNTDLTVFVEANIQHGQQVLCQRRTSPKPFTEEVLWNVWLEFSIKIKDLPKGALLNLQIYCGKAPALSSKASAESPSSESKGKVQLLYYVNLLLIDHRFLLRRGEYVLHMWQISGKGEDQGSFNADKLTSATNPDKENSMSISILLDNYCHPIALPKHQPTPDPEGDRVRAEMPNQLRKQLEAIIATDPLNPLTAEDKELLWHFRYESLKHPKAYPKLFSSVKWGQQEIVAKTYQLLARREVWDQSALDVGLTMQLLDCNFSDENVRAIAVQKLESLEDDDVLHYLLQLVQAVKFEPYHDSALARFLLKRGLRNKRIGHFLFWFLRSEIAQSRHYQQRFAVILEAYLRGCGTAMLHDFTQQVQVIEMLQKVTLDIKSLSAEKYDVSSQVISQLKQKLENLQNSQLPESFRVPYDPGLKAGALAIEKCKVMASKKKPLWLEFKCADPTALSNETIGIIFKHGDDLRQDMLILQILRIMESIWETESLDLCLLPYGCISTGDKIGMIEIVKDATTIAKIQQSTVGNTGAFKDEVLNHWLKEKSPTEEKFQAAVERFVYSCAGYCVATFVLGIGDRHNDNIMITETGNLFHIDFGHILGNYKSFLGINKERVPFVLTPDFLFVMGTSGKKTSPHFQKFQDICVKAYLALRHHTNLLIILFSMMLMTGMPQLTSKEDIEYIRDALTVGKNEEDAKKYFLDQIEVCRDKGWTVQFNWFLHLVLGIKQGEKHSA
T2 sequence (Q12809 whole entry): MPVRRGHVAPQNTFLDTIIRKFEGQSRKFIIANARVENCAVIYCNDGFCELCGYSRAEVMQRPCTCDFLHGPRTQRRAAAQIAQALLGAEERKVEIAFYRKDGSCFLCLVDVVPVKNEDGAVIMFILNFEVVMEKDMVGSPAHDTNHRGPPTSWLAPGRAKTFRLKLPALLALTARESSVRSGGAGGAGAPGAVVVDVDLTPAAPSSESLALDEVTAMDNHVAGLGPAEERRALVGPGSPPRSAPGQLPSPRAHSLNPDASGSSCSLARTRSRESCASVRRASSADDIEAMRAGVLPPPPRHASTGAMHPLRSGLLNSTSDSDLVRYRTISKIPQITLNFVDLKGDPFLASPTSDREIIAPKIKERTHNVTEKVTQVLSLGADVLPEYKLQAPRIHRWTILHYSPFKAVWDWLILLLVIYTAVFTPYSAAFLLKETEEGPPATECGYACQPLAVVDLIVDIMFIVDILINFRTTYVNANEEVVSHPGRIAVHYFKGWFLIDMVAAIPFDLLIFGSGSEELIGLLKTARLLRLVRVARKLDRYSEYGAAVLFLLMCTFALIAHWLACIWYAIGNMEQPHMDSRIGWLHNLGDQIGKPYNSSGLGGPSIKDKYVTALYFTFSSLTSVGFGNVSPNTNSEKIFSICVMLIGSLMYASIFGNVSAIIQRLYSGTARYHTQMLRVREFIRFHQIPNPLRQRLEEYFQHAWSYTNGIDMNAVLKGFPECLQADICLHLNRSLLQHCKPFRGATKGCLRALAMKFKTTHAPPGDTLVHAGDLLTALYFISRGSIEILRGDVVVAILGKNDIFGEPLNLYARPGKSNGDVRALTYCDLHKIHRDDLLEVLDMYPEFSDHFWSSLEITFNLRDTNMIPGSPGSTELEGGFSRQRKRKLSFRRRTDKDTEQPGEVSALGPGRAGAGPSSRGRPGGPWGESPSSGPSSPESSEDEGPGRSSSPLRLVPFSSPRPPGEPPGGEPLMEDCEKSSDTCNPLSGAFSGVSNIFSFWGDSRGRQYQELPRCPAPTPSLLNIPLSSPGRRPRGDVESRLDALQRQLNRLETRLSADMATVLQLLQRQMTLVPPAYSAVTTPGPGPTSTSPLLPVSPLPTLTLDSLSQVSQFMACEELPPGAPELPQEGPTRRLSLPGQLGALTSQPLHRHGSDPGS
T1 sequence (P08684 whole entry): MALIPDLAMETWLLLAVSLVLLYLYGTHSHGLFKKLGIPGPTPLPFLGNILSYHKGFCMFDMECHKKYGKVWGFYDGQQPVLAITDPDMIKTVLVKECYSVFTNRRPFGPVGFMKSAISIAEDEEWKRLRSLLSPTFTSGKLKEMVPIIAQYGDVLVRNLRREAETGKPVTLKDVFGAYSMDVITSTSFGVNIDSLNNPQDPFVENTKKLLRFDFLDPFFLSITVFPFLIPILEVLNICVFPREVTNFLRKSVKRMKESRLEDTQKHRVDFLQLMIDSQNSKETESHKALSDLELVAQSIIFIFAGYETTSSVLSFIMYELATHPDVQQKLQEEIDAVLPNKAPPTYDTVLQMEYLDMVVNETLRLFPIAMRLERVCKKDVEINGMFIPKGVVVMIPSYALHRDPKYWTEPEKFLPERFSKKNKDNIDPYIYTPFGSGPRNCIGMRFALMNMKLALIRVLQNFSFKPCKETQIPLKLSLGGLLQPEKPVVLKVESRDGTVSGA

Compound | MBI (CYP3A4) | IC50 at 15 min ([1]; human, microsomes) | inhibition at 10 µM (PI3Kγ) | hLMS_ox(at 0.5 μM) % [2] | inhibition at 10 min, 1 µM (hERG channel (IKr)) | IC50 at 15 min ([1]; pooled human liver microsomes, one value for five species (CYP1A2, 2C9, 2C19, 2D6, 3A4), pooled human liver microsome 0.2 mg protein/mL, 15 minutes, 37° C., test drug 1-20 μmol/L, read-out: 5CYPs_IC50) | inhibition at 1 µM (AKT phosphorylation)
CC(C)NC(=O)c1ccccc1NC(=O)Nc1nc2c(s1)CN(c1ccc(S(C)(=O)=O)cc1)CC2 [Compound I-204] | (−) (When 3 μmol/L or less, the compound is shown as (−)) | > 20 µM | ≥ 95% |  |  |  | 
COc1cc(N2CCc3nc(NC(=O)Nc4ccccc4C(=O)NC(C)C)sc3C2)cc(OC)n1 [Compound I-63] |  | > 20 µM | ≥ 95% | 80.1% | 2.7% |  | 
COc1cc(N2CCc3nc(NC(=O)Nc4ccccc4C(C)=O)sc3C2)nc(OC)n1 [Compound I-9] | (−) (When 3 μmol/L or less, the compound is shown as (−)) | ≥ 10 µM | 93% |  |  |  | 
CC(C)NC(=O)c1ccccc1NC(=O)Nc1nc2c(s1)CN(c1cncc(S(=O)(=O)N(C)C)c1)CC2 [Compound I-108] | (−) (When 3 μmol/L or less, the compound is shown as (−)) | > 20 µM |  |  |  |  | 
COc1cc(N2CCc3nc(NC(=O)Nc4ccccc4C(=O)O)sc3C2)nc(OC)n1.Cl.Cl [Compound I-5] | (−) (When 3 μmol/L or less, the compound is shown as (−)) |  | 85% |  |  | ≥ 10 µM | 
Cc1cc(N2CCc3nc(NC(=O)Nc4ccccc4C(=O)NCC#N)sc3C2)nc(Cl)n1 [Compound I-172] | (−) (When 3 μmol/L or less, the compound is shown as (−)) | ≥ 10 µM | ≥ 95% | 98% |  |  | 
COCCNC(=O)c1ccccc1NC(=O)Nc1nc2c(s1)CN(c1cc(OC)nc(OC)n1)CC2 [Compound I-86] | (−) (When 3 μmol/L or less, the compound is shown as (−)) | ≥ 10 µM | ≥ 95% |  |  |  | 
O=C(Nc1nc2c(s1)CN(c1cncc(C(F)(F)F)c1)CC2)Nc1ccccc1C(=O)NC(CO)CO [Compound I-173] | (−) (When 3 μmol/L or less, the compound is shown as (−)) | ≥ 10 µM | 71% |  |  |  | 
COc1nc(Cl)cc(N2CCc3nc(NC(=O)Nc4ccccc4C(=O)NC4CCOC4)sc3C2)n1 (stereo not shown) [Compound I-175] |  | ≥ 10 µM | ≥ 95% |  | 1.6% |  | 88%
CC(C)NC(=O)c1ccccc1NC(=O)Nc1nc2c(s1)CN(c1ccc(C#N)cc1)CC2 [Compound I-209] | (−) (When 3 μmol/L or less, the compound is shown as (−)) | ≥ 10 µM | ≥ 95% |  |  |  | 
COc1nc(Cl)cc(N2CCc3nc(NC(=O)Nc4ccccc4C(=O)NC(C)C(F)(F)F)sc3C2)n1 (stereo not shown) [Compound I-176] | (−) (When 3 μmol/L or less, the compound is shown as (−)) | ≥ 10 µM |  |  | 0.4% |  | 83%
COc1cc(N2CCc3nc(NC(=O)Nc4ccccc4C(=O)NCC#N)sc3C2)nc(OC)n1 [Compound I-90] | (−) (When 3 μmol/L or less, the compound is shown as (−)) | ≥ 10 µM |  | 83.4% |  |  | 
COc1cc(N2CCc3nc(NC(=O)Nc4cn(C)nc4C(=O)NC(CO)CO)sc3C2)nc(OC)n1 [Compound I-170] |  | > 20 µM | ≥ 95% | 91.6% |  |  | 80%
CC(C)NC(=O)c1ccccc1NC(=O)Nc1nc2c(s1)CN(c1cncc(C#N)c1)CC2 [Compound I-188] |  | > 20 µM | 80% |  | 3.9% |  | 84%
COc1cc(N2CCc3nc(NC(=O)Nc4ccccc4C(=O)NCCC#N)sc3C2)nc(OC)n1 [Compound I-89] | (−) (When 3 μmol/L or less, the compound is shown as (−)) | ≥ 10 µM | ≥ 95% | 93.6% |  |  | 
COc1cc(C2CCc3nc(NC(=O)Nc4ccccc4C(=O)NC(C)C)sc3C2)nc(OC)n1 (stereo not shown) [Compound I-60] |  | > 20 µM | ≥ 95% | 81.9% | 3.6% |  | 
